Source: patent US4970153A, “Method of producing acid urease and the use of the urease” (Nagase & Co., Ltd., priority 1987, dated 1990)
Where two headings read alike, the source gives them in different places.

Key:
[1] = target: T1, acid-urease obtained by culturing Lactobacillus fermentum TK 1214 (Limosilactobacillus fermentum, UniProt P26929); test: Stabilization of acid urease by additives (treated at 65° C. for 10 minutes); format: biochemical; conditions: additive 1 mM, not added: 80
T1 sequence (P26929 1-573): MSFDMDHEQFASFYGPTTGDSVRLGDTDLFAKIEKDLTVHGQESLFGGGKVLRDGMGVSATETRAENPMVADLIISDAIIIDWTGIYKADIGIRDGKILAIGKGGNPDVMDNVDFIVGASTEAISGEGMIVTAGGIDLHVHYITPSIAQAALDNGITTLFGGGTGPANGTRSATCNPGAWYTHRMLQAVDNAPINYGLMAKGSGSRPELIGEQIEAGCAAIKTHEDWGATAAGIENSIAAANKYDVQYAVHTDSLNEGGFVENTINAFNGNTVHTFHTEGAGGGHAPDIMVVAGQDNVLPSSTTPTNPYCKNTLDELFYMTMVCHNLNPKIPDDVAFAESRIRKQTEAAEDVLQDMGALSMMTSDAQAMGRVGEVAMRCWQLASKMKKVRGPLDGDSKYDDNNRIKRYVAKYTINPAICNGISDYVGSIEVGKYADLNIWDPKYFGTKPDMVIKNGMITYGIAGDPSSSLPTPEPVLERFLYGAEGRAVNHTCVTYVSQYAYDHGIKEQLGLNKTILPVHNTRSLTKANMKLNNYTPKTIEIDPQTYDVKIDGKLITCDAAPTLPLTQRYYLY
T1 sequence (P26930 1-124 partner): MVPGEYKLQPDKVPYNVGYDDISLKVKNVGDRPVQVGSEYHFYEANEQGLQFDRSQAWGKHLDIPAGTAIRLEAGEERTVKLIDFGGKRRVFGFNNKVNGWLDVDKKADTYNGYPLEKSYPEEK
T1 sequence (P26931 1-100 partner): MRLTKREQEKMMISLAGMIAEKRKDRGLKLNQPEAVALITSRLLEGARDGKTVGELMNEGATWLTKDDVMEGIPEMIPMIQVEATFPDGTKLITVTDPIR
Protocol: (6) Stabilization (treated at 65° C. for 10 minutes):
(§1) by Colorimetric assay of ammonia formed by reaction with urea.
(§2) React at 37° C. for 10 minutes, add 0.2 ml of 1.0N H2 SO4 and stop the reaction. Take out a part of reaction solution and give coloring by Indophenol reagent. Measure the absorbance at 630 nm, and determine quantity of decomposed urea by assaying formed ammonia.

[2] = target: T1, acid-urease obtained by culturing Lactobacillus fermentum TK 1214; test: Substrate specificity of acid urease (colorimetric assay of ammonia formed); format: biochemical; conditions: substance used as substrate of acid urease
Protocol: (2) Substrate specificity:
as §1
(§3) 0.1M acetate buffer (pH 4.0): 0.6 ml
as §2
(§4) 1 unit activity (I.U.) of acid-urease is quantity of enzyme which decomposes 1 μmole of urea at 37° C., pH 4.0 for one minute.

[3] = target: T1, acid-urease obtained by culturing Lactobacillus fermentum TK 1214; test: Inhibition and activation of acid urease by additives; format: biochemical
Protocol: (5) Inhibition and activation:
as §1, §3, §2, §4

[4] = target: neutral urease from sword beans
[5] = target: acid urease from Lactobacillus fermentum TK 1214 (Limosilactobacillus fermentum, UniProt P26929)

SMILES	Relative activity (%) after heat treatment [1] [%]	relevant activity (%) [2] [%]	other results
O=C(O)CN(CCN(CC(=O)O)CC(=O)O)CC(=O)O [EDTA-4Na]	100		
CNC(N)=O [Methylurea]		0	
CCNC(N)=O [Ethylurea]		0	
NC(=O)NO [Hydroxyurea]		0	
NC(N)=S [Thiourea]		0	
NC(N)=O [Urea]		100	
O[C@H](CS)[C@H](O)CS [Dithiothreitol]	100		
O=C([O-])c1cc[c]([Hg][Cl])cc1 [p-Chloromercuricbenzoate]			Relative activity (%) ([3]; additive 0.05 mM): 50%
NO [Hydroxylamine]		0	
OCCS [Mercapto ethanol]	100		Relative activity (%) ([3]; additive 1 mM): 100%
CCCCCCCC(=O)NO [Caprilohydroxamic acid]		0	Relative activity (%) ([3]; additive 0.04 mM): 50%
O=C(NO)c1cccnc1 [Nicotinhydroxamic acid]		0	Relative activity (%) ([3]; additive 0.5 mM): 50%
CCO [Ethanol]			Ki (inhibitor constant) value against ethanol [4]: about 9%; Ki (inhibitor constant) value against ethanol [5]: about 40%; Relative activity (%) [3]: 50%
N[C@@H](CS)C(=O)O [Cysteine]	100		Relative activity (%) ([3]; additive 1 mM): 100%
N[C@@H](CCC(=O)N[C@@H](CS)C(=O)NCC(=O)O)C(=O)O [Glutathione]	100		Relative activity (%) [3]: 100%
O[C@H](CS)[C@@H](O)CS [Dithioerithritol]	100		
O=C(NO)c1ccccc1 [Benzohydroxamic acid]		0	Relative activity (%) ([3]; additive 0.5 mM): 50%
C=CCNC(N)=O [Allylurea]		0	
